Residues, ends and D or L forms follow the SMILES beside them.
Columns and labels:
Format in all cases: cell-based
[1] = system: Micrococcus luteus ATCC 49,732; details: ATCC 49, 3 h
Source text: (§1) Ten organisms obtained from the American Type Culture Collection (ATCC; Rockville, MD) were used for antimicrobial assays. Four Gram-negative bacteria included Escherichia coli ATCC 25922, Pseudomonas aeruginosa ATCC 27853, Klebsiella oxytoca ATCC 49131, and Proteus vulgaris ATCC 49132. The three Gram-positive bacteria were Staphylococcus aureus 29213, Micrococcus luteus ATCC 49,732, and Enterococcus faecalis ATCC 29212. The three fungi were Candida albicans ATCC 37092, Candida kefyr ATCC 37095, and Candida tropicalis ATCC 37097. The clinical isolates were obtained from Singapore General Hospital (SGH). They are Enterococcus faecium, Staphylococcus aureus, Klebsiella pneumoniae, Acinetobacter baumannii, Pseudomonas aeruginosa, and Enterobacter species. The strains were incubated in trypticase soy broth (TSB), which was prepared in double distilled water and autoclaved for sterilization. TSB was purchased from Becton-Dickinson (Cockeysville, MD, USA).
(§2) Antimicrobial Assays. A sensitive and reproducible two-stage radial diffusion antimicrobial assay of Lehrer et al. was employed. A 1–4 × 10^6 colony-forming unit/mL of the test organism was mixed with 10 mL of molten underlay gel solution and poured into Petri dishes to form a uniform layer. The gel solution consisted of 10 mM sodium phosphate buffer, 0.03% TSB, and 0.02% Tween-20, with the addition of 100 mM NaCl in the case of high-salt conditions. Upon gel solidification, gel wells were made by a 3-mm diameter template in an evenly spaced array. A 5 µL aliquot of a serial half-log dilution of test peptides at seven concentrations was added to each well after removal of gel plugs. The dishes were incubated at 37 °C for 3 h to allow peptide diffusion into the underlay gels. Gels were overlaid with 10 mL of 1% agarose in 6% TSB (wt/vol). After additional incubation at 37 °C for 16–24 h, the diameter of the clear zone surrounding the wells (colony-free) was measured under a microscope. Antimicrobial activities were expressed in units (0.1 mm = 1 unit), and the MICs (in µM) were determined from the x-intercepts of the dose-response curves. Experiments were performed in triplicates.

[2] = system: Candida kefyr ATCC 37095; details: ATCC 37095, 3 h
Source text: as §1, §2

[3] = system: Candida albicans ATCC 37092; details: ATCC 37092, 3 h
Source text: as §1, §2

[4] = system: Escherichia coli ATCC 25922; details: ATCC 25922, 3 h
Source text: as §1, §2

[5] = system: Candida tropicalis ATCC 37097; details: ATCC 37097, 3 h
Source text: as §1, §2

[6] = system: Proteus vulgaris ATCC 49132; details: ATCC 49132, 3 h
Source text: as §1, §2

[7] = system: Klebsiella oxytoca ATCC 49131; details: ATCC 49131, 3 h
Source text: as §1, §2

[8] = system: Enterococcus faecalis ATCC 29212; details: ATCC 29212, 3 h
Source text: as §1, §2

[9] = system: Staphylococcus aureus 29213; details: 29213, 3 h
Source text: as §1, §2

[10] = system: Pseudomonas aeruginosa ATCC 27853; details: ATCC 27853, 3 h
Source text: as §1, §2

Structure (SMILES)	MIC, M. luteus, H-Salt [1] [µM]	MIC, M. luteus, L-Salt [1] [µM]	MIC, C. kefyr, H-Salt [2] [µM]	MIC, C. kefyr, L-Salt [2] [µM]	MIC, C. albicans, H-Salt [3] [µM]	MIC, C. albicans, L-Salt [3] [µM]	MIC, E. coli, H-Salt [4] [µM]	MIC, E. coli, L-Salt [4] [µM]	MIC, C. tropicalis, H-Salt [5] [µM]	MIC, C. tropicalis, L-Salt [5] [µM]	MIC, P. vulgaris, H-Salt [6] [µM]	MIC, P. vulgaris, L-Salt [6] [µM]	MIC, K. oxytoca, H-Salt [7] [µM]	MIC, K. oxytoca, L-Salt [7] [µM]	MIC, E. faecalis, H-Salt [8] [µM]	MIC, E. faecalis, L-Salt [8] [µM]	MIC, S. aureus, H-Salt [9] [µM]	MIC, S. aureus, L-Salt [9] [µM]	MIC, P. aeruginosa, H-Salt [10] [µM]	MIC, P. aeruginosa, L-Salt [10] [µM]
CC(C)C[C@H](NC(=O)[C@@H](N)CCCNC(=N)N)C(=O)N[C@@H](Cc1ccc(O)cc1)C(=O)N[C@@H](CCCNC(=N)N)C(=O)NCCCC[C@H](NC(=O)[C@H](CCCNC(=N)N)NC(=O)[C@H](Cc1ccc(O)cc1)NC(=O)[C@H](CC(C)C)NC(=O)[C@@H](N)CCCNC(=N)N)C(=O)NCCCC[C@H](NC(=O)[C@H](CCCNC(=N)N)NC(=O)[C@H](Cc1ccc(O)cc1)NC(=O)[C@H](CC(C)C)NC(=O)[C@@H](N)CCCNC(=N)N)C(=O)NCCCC[C@H](NC(=O)[C@H](CCCNC(=N)N)NC(=O)[C@H](Cc1ccc(O)cc1)NC(=O)[C@H](CC(C)C)NC(=O)[C@@H](N)CCCNC(=N)N)C(=O)NCCCC[C@H](NC(=O)[C@H](CCCNC(=N)N)NC(=O)[C@H](Cc1ccc(O)cc1)NC(=O)[C@H](CC(C)C)NC(=O)[C@@H](N)CCCNC(=N)N)C(N)=O [iK5R] (HELM PEPTIDE1{R.L.Y.R.K}|PEPTIDE2{R.L.Y.R}|PEPTIDE3{R.L.Y.R.K}|PEPTIDE4{R.L.Y.R.K}|PEPTIDE5{R.L.Y.R.K.[am]}$PEPTIDE1,PEPTIDE2,5:R3-4:R2|PEPTIDE1,PEPTIDE3,5:R2-5:R3|PEPTIDE3,PEPTIDE4,5:R2-5:R3|PEPTIDE4,PEPTIDE5,5:R2-5:R3$$$V2.0; N-terminus assumed)	0.6	1.0	0.7	0.6	0.8	0.8	0.5	0.5	0.9	1.2	0.7	0.6	1.3	0.5	1.6	0.8	0.7	0.8	0.8	0.6
CC(C)C[C@H](NC(=O)[C@@H](N)CCCNC(=N)N)C(=O)N[C@@H](Cc1ccc(O)cc1)C(=O)N[C@@H](CCCNC(=N)N)C(=O)NCCCC[C@H](NC(=O)[C@H](CCCCNC(=O)[C@H](CCCNC(=N)N)NC(=O)[C@H](Cc1ccc(O)cc1)NC(=O)[C@H](CC(C)C)NC(=O)[C@@H](N)CCCNC(=N)N)NC(=O)[C@H](CCCCNC(=O)[C@H](CCCNC(=N)N)NC(=O)[C@H](Cc1ccc(O)cc1)NC(=O)[C@H](CC(C)C)NC(=O)[C@@H](N)CCCNC(=N)N)NC(=O)[C@H](CCCCNC(=O)[C@H](CCCNC(=N)N)NC(=O)[C@H](Cc1ccc(O)cc1)NC(=O)[C@H](CC(C)C)NC(=O)[C@@H](N)CCCNC(=N)N)NC(=O)[C@H](CCCNC(=N)N)NC(=O)[C@H](Cc1ccc(O)cc1)NC(=O)[C@H](CC(C)C)NC(=O)[C@@H](N)CCCNC(=N)N)C(N)=O [K5R] (HELM PEPTIDE1{R.L.Y.R.K.K.K.K.[am]}|PEPTIDE2{R.L.Y.R}|PEPTIDE3{R.L.Y.R}|PEPTIDE4{R.L.Y.R}|PEPTIDE5{R.L.Y.R}$PEPTIDE1,PEPTIDE2,8:R3-4:R2|PEPTIDE1,PEPTIDE3,7:R3-4:R2|PEPTIDE1,PEPTIDE4,6:R3-4:R2|PEPTIDE1,PEPTIDE5,5:R3-4:R2$$$V2.0; N-terminus assumed)	0.8	0.6	0.9	0.9	0.8	0.7	0.6	0.7	1.3	1.1	0.7	1.2	1.3	0.9	1.4	1.3	0.7	0.8	0.8	0.8

From PMC10489980, “Design of Potent and Salt-Insensitive Antimicrobial Branched Peptides” (Polymers, 2023)
